One molecule from patent US7915050B2, “Regulatory genes for plant differentiation and growth, and use of the same” (National University Corporation Nagoya University, priority 2005, dated 2011) can be followed below.

For the assay, the target named is T1, AtGID1c in the presence of GAI (Arabidopsis thaliana, UniProt Q940G6).
T1 construct: made in house; host or cells: E. coli (stated for AtGID1)
T1 sequence (Q940G6 1-344): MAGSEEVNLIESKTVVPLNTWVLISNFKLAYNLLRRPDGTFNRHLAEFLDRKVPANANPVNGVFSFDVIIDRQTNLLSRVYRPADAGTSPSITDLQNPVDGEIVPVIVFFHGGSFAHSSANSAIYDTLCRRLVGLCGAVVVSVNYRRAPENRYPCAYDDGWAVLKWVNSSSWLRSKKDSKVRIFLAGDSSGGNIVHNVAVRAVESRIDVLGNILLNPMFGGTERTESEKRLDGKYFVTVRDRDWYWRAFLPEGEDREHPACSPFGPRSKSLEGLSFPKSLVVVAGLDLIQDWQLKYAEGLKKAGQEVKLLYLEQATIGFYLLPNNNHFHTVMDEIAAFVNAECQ
T1 sequence (Q9LQT8 1-533 partner): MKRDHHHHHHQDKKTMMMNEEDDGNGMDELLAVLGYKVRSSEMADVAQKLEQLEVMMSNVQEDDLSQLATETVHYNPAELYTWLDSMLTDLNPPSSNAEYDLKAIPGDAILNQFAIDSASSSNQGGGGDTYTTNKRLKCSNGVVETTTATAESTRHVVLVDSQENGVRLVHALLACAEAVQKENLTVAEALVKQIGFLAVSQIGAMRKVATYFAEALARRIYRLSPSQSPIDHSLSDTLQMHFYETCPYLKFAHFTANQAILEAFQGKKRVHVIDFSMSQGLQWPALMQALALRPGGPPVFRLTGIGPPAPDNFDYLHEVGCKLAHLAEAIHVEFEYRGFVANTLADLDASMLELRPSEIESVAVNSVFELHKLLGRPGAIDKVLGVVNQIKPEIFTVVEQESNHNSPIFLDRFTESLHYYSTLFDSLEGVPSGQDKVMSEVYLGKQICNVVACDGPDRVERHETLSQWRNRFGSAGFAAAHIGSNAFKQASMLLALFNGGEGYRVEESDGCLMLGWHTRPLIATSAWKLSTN
Nature of the assay: Scatchard analysis of AtGID1c-GA binding in the presence of GAI. On the procedure: Panel A) depicts AtGID1-AtDELLA interaction in the presence of GA in two types of yeast hybrid (Y2H) assays. Each AtGID1 was used as a bait while AtDELLA was a prey. GA4 (10^−5 M) was added to the medium. The bars indicates β-galactosidase activity when o-nitrophenol-β-D-galactopyranoside was used as a substrate (Assay B). The growth of each transformant in the defined medium for 2 days (Assay A) is shown beneath of each bar graph. The experiment was carried out in quadruplicate. The SD value shown in the figure was determined from three measurements. Panel B) depicts the dose response in AtGID1-RGA interaction in Assay B of Y2H. GA4 (10^−5 to 10^−9 M) was added to the medium. The experiment was conducted in […]. The SD value shown in the figure was determined from three measurements. Panel C) depicts the results of an evaluation of the in vitro GA-binding potency of AtGID1 using AtDELLA. […] GAI (G) or RGA (R) was added, and then the GA-binding activity in each reaction mixture was measured according to the standard method. […] The SD value was determined from three measurements. […]
Next, whether AtDELLAs exert some kind of influence on the GA-binding activity of AtGID1s was examined in vitro. After labeled 16,17-dihydro-GA4 and AtGID1s were combined, AtDELLAs were added to the solutions, and the GA-binding activity was measured. […]

As to `CC1C[C@]23C[C@H]1CCC2[C@]12CC[C@H](O)[C@](C)(C(=O)O1)[C@H]2[C@@H]3C(=O)O` (stereo partly shown) [H2-GA4, 16,17-dihydro-GA4], the Kd amounted to 46 nM.
